In assay [1] the target is T1, progesterone receptor (PR) (Homo sapiens, UniProt P06401).
T1 sequence (P06401 1-933): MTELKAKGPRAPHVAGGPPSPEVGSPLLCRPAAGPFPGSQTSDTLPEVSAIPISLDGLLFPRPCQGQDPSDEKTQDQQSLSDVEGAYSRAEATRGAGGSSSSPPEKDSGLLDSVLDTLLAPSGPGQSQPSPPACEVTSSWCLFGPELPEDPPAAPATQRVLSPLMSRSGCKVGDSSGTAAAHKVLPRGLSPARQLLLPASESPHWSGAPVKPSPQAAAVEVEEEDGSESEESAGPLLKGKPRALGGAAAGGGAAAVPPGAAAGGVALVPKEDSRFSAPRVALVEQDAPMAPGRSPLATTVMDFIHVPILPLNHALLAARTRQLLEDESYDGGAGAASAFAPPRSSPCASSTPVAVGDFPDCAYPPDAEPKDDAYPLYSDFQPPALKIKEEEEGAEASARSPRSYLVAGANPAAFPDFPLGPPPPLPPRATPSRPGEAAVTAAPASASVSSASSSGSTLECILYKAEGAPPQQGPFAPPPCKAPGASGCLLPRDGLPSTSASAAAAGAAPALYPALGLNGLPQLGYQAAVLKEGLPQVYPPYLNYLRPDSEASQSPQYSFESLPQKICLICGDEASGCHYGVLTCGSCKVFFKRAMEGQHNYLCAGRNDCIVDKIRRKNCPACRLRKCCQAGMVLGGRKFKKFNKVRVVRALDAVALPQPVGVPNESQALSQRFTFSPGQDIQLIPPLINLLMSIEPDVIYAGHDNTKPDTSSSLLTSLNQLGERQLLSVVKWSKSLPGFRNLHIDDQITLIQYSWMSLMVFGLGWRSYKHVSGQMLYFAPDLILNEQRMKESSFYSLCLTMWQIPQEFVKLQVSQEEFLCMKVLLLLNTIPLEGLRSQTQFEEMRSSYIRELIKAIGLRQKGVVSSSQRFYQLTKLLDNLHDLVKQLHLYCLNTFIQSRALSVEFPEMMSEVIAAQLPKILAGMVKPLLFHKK
The experiment in a line: Radioligand binding assay with progesterone receptor cytosol (similar protocol). An excerpt:
Methods for Radioligand Binding Studies with Human Glucocorticoid and Progesterone Receptor Cytosol
A similar protocol was employed to measure affinity of the compounds of the present invention for progesterone receptor (PR).

The target of assay [2] is T2, Human glucocorticoid receptors (Homo sapiens, UniProt P04150).
T2 construct: made in house; host or cells: Sf9 insect cells, recombinant baculovirus (BAC-TO-BAC)
T2 sequence (P04150 1-777): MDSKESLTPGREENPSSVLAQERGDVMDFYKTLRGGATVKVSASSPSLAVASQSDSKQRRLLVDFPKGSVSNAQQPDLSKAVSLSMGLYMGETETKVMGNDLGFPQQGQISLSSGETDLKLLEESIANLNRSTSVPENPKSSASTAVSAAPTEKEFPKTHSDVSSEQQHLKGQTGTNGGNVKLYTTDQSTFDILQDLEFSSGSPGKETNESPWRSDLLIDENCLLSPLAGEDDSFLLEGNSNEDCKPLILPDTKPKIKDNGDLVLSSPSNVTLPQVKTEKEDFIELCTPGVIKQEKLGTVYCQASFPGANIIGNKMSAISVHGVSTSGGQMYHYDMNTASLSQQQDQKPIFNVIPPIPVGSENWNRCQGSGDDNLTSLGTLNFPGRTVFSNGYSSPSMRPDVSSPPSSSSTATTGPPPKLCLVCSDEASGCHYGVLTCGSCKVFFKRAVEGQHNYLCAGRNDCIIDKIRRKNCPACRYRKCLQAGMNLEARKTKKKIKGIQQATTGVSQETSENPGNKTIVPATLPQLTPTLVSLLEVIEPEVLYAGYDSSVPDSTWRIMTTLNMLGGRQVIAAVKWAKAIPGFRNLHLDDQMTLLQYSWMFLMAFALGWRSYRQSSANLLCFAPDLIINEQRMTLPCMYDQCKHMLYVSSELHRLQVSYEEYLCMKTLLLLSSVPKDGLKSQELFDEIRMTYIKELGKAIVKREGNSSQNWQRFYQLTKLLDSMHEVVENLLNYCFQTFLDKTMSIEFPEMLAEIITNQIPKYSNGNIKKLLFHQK
Nature of the assay: Radioligand filter binding assay, displacement of 3(H)-dexamethasone from human glucocorticoid receptor cytosol. The settings on record: 1.7 μM test compound, inhibition of 3(H)-dex binding to hGR; for inhibition at 1.7 µM: read-out: GR BINDING (% Inhibition @ 1.7 μM).
Protocol: Dexamethasone hereafter referred to as dex was purchased from SIGMA. […] Human glucocorticoid receptors were extracted from Sf9 cells infected with a recombinant baculovirus transfer vector containing the cloned hGR genes. […] The recombinant baculovi, uses expressing hGR were amplified and used to infect Sf9 cells. Infected cells were harvested 48 hrs post infection. […] The concentration of hGR in the extract was measured as specific ^3(H)-dex binding with the G25-assay as described in J. Steroid Biochem. Molec. […] The extract was aliquoted and stored at −70° C.
The filter binding assay: Dilution series of the test compounds and dex as reference were made from 10 mM (1 mM dex) stock solutions in DMSO. 10 μl of the dilutions was added in duplicates to the wells. The cell extracts were diluted 10 fold in EPMo +MTG buffer (1 mM EDTA, HPO4 20 mM (pH8), 6 mM MTG). […] 110 μl of the diluted ^3(H)-dex were added to the wells. The final concentration of hGR in the experiment was estimated to 1 nM. All preparations were made in ambient temperature (20-25° C.) on ice and with +4° C. temperated buffers. The plates were incubated over night at +4° C. (15-20hrs).
The incubation was stopped by filtration through GF/B filter on the Tomtec Cellharvester. The filtration on the Tomtec Cellharvester was programmed as follows: 1) Preparation before filtration with EP buffer (1 mM EDTA 20 mM HPO4 (pH8)) 2×(Wash/Asp 0.6 sec., Asp 0.5 sec.); 2) Prewet of GF/B filter with EP+PEI buffer (EP buffer, 0.3% Polyesthylenimine) (Asp 0.8 sec.). 3) Filtration/harvesting of the 96-well incubation plate 3×(Wash/Asp 0.6 sec., Asp 0.5 sec.). The GF/B filter was dried for at least 1 hr at 65° C. A MeltiLex scintillation wax was melted onto the filter with the Microsealer. The filter was placed in a samplebag, which was thereafter trimmed with scissors to fit the filter cassette. The cassette were placed in the Microbeta and measured for 1 min/position, returning ccpm (conrected counts per minute).
The Microbeta-instrument generates the mean cpm (counts per minute) value/minute and corrects for individual variations between the detectors thus generating corrected cpm values.

In turn, `COc1cccc2c1-c1ccc(NS(C)(=O)=O)cc1[C@H](c1ccccc1)O2` [Example 24, 6S-(1-methoxy-6-phenyl-6H-dibenzo(b,d)pyran-8-yl)methanesulfonamide] displayed an IC50 in assay [1] of 800 nM. Further, the inhibition at 1.7 µM in assay [2] stood at 88.9%.
Compound `COc1cccc2c1-c1ccc(NS(C)(=O)=O)cc1C(c1cccc(Oc3ccccc3)c1)O2` (centres unmarked) [Example 139, N-[1-methoxy-6-(3-phenoxyphenyl)-6H-benzo[c]chromen-8-yl]methanesulfonamide] gave an IC50 in assay [1] above 1000 nM. The inhibition at 1.7 µM in assay [2] is 90.6%.
Consider “(1-methoxy-6-(inden-3-yl)-6H-dibenzo(b,d)pyran-8-yl)methanesulfonamide [Example 74]”, for which, in assay [1], the IC50 worked out at 970 nM. For the same compound, the “GR BINDING (% Inhibition @ 1.7 μM)” value in assay [2] stood at 86.7%.
“(1-methoxy-6-(2-thienyl)-6H-dibenzo(b,d)pyran-8-yl)methanesulfonamide [Example 54]” displayed a half-maximal inhibitory concentration (IC50) in assay [1] of 450 nM. Also, in assay [2], the “GR BINDING (% Inhibition @ 1.7 μM)” value was 94.1%.
On the same counts, the results for “(1-methoxy-6-(3-chloroprop-2-en-1-yl)-6H-dibenzo(b,d)pyran-8-yl)methanesulfonamide [Example 73]” are above 1000 nM and 88.3%.
The corresponding values for “(1-methoxy-6-(2-bromoprop-2-en-1-yl)-6H-dibenzo(b,d)pyran-8-yl)methanesulfonamide [Example 71]” are 340 nM and 89.5%.
Compound “(1-methoxy-6-(3-fluorophenyl)-6H-dibenzo(b,d)pyran-8-yl)methanesulfonamide [Example 77]” registered a half-maximal inhibitory concentration (IC50) in assay [1] of 480 nM. For the same compound, the “GR BINDING (% Inhibition @ 1.7 μM)” value in assay [2] is 90.4%.
Turning to “(1-cyano-6-phenyl-6H-dibenzo(b,d)pyran-8-yl)methanesulfonamide [Example 43]”, the IC50 in assay [1] was found to be 730 nM. Further, the “GR BINDING (% Inhibition @ 1.7 μM)” value in assay [2] was determined as 90.6%.
On the same counts, the results for “(1-methoxy-6-(4-chlorophenyl)-6H-dibenzo(b,d)pyran-8-yl)methanesulfonamide [Example 61]” are 3990 nM and 91.3%.
On the same counts, the results for “(1-methoxy-6-cyclohexyl-6H-dibenzo(b,d)pyran-8-yl)methanesulfonamide [Example 55]” are 1000 nM and 93.4%.
`COc1cccc2c1-c1ccc(NS(C)(=O)=O)cc1C(c1cccc(C)c1)O2` (centres unmarked) [Example 86, N-[1-methoxy-6-(3-methylphenyl)-6H-benzo[c]chromen-8-yl]methanesulfonamide] showed an IC50 in assay [1] of 77 nM. For the same compound, the inhibition at 1.7 µM in assay [2] was 90.4%.
As to “(1-methoxy-6-(5-chloropent-1-yl)-6H-dibenzo(b,d)pyran-8-yl)methanesulfonamide [Example 75]”, the IC50 in assay [1] is 1850 nM. In assay [2], the “GR BINDING (% Inhibition @ 1.7 μM)” value was determined as 90.1%.
On the same counts, the results for “(1-methoxy-6-(3-carboethoxyphenyl)-6H-dibenzo(b,d)pyran-8-yl)methanesulfonamide [Example 51]” are above 10000 nM and 94.0%.
“(1-methoxy-2-hydroxy-6-phenyl-6H-dibenzo(b,d)pyran-8-yl)methanesulfonamide [Example 65]”: in assay [1], the IC50 came to 2840 nM. For the same compound, the “GR BINDING (% Inhibition @ 1.7 μM)” value in assay [2] turned out to be 94.9%.
The corresponding values for “(1-methoxy-6-(4-methylphenyl)-6H-dibenzo(b,d)pyran-8-yl)methanesulfonamide [Example 76]” are 670 nM and 89.7%.
The corresponding values for “(1-methoxy-6-(4-carboethoxyphenyl)-6H-dibenzo(b,d)pyran-8-yl)methanesulfonamide [Example 52]” are above 10000 nM and 92.2%.
The corresponding values for “(1-(2-propynyl)oxy-6-phenyl-6H-dibenzo(b,d)pyran-8-yl)methanesulfonamide [Example 45]” are 2160 nM and 91.2%.
In assay [1], “(1-difluoromethoxy-6-(4-(N-allyl-N-methylamino)phenyl)-6H-dibenzo(b,d)pyran-8-yl)-methanesulfonamide [Example 30]” came in with an IC50 of 1280 nM. Besides, in assay [2], the “GR BINDING (% Inhibition @ 1.7 μM)” value was found to be 85.6%.
Consider `COc1cccc2c1-c1ccc(NS(C)(=O)=O)cc1C(CCCCCCC#N)O2` (centres unmarked) [Example 48], for which, in assay [1], the IC50 was above 10000 nM. Also, the inhibition at 1.7 µM in assay [2] amounted to 90.8%.
On to “(1-methoxy-6-allyl-6H-dibenzo(b,d)pyran-8-yl)methanesulfonamide [Example 53]”, for which the IC50 in assay [1] was found to be 1420 nM. Further, in assay [2], the “GR BINDING (% Inhibition @ 1.7 μM)” value was 92.9%.
On the same counts, the results for “(1-methoxy-4-methyl-6-phenyl-6H-dibenzo(b,d)pyran-8-yl)methanesulfonamide [Example 68]” are above 10000 nM and 88.1%.
Consider `COc1cccc2c1-c1ccc(NS(C)(=O)=O)c(Br)c1C(c1ccccc1)O2` (centres unmarked) [Example 2], for which the IC50 in assay [1] is above 10000 nM. Moreover, the inhibition at 1.7 µM in assay [2] came out at 67.2%.
On the same counts, the results for `C=CCOc1cccc(C2Oc3cccc(OC)c3-c3ccc(NS(C)(=O)=O)cc32)c1` (centres unmarked) [Example 33, (1-methoxy-6-(3-allyloxy)phenyl-6H-dibenzo(b,d)pyran-8-yl)-methanesulfonamide] are 5490 nM and 87.5%.
In assay [1], “(1-ethynyl-6-phenyl-6H-dibenzo(b,d)pyran-8-yl)methanesulfonamide [Example 36]” had an IC50 of 2240 nM. Also, the “GR BINDING (% Inhibition @ 1.7 μM)” value in assay [2] was found to be 95.0%.
On the same counts, the results for “(1-methoxy-6-(3,4-dichlorophenyl)-6H-dibenzo(b,d)pyran-8-yl)methanesulfonamide [Example 63]” are 1200 nM and 98.5%.
The corresponding values for “(1-methoxy-6-(5-chlorothien-2-yl)-6H-dibenzo(b,d)pyran-8-yl)methanesulfonamide [Example 58]” are 524 nM and 94.6%.
In assay [1], `CS(=O)(=O)Nc1ccc2c(c1)C(c1ccccc1)Oc1cccc(OC(F)F)c1-2` (centres unmarked) [Example 25, N-(1-difluoromethoxy-6-phenyl-6H-dibenzo[b,d]pyran-8-yl)methanesulfonamide] returned an IC50 of 370 nM. For the same compound, the inhibition at 1.7 µM in assay [2] is 92.7%.
“(1-methoxy-6-(3-methoxyphenyl)-6H-dibenzo(b,d)pyran-8-yl)methanesulfonamide [Example 59]”: the IC50 in assay [1] was determined as 2110 nM. Further, the “GR BINDING (% Inhibition @ 1.7 μM)” value in assay [2] came to 94.7%.
In assay [1], “(1,2-methylenedioxy-6-phenyl-6H-dibenzo(b,d)pyran-8-yl)methanesulfonamide [Example 66]” had an IC50 of 222 nM. In addition, the “GR BINDING (% Inhibition @ 1.7 μM)” value in assay [2] is recorded as 91.6%.
In assay [1], “(1-methoxy-6-(5-bromothien-2-yl)-6H-dibenzo(b,d)pyran-8-yl)methanesulfonamide [Example 62]” returned an IC50 of 172 nM. For the same compound, the “GR BINDING (% Inhibition @ 1.7 μM)” value in assay [2] is reported as 94.5%.
In turn, `COCCCc1ccc(C2Oc3cccc(OC)c3-c3ccc(NS(C)(=O)=O)cc32)s1` (centres unmarked) [Example 138, N-{1-methoxy-6-[5-(3-methoxypropyl)-2-thienyl]-6H-benzo[c]chromen-8-yl}methanesulfonamide] had an IC50 in assay [1] of 280 nM. Also, the inhibition at 1.7 µM in assay [2] was 92.5%.

The values above are taken from patent publication US6593480B2 (Abbott Laboratories, priority 1999, dated 2003).
